Laboratory results taken from patent US20060172004A1, “Oral compositions for the stimulation of gastric acid secretion comprising pentagastrin” (priority 2003, published 2006).
Like-named read-outs stand apart in the source and are kept apart here.

Tests used:
gastrin receptor (CCKB) = target: T1, gastrin receptor (CCKB) (Rattus norvegicus, UniProt P30553); test: Effect of CCKB antagonist on PG-mediated gastric acid secretion in pylorus-ligated rats; assay type: in vivo
T1 construct: from tissue; host or cells: stomach of live anesthetized pylorus-ligated rats (in vivo)
T1 sequence (P30553 1-452): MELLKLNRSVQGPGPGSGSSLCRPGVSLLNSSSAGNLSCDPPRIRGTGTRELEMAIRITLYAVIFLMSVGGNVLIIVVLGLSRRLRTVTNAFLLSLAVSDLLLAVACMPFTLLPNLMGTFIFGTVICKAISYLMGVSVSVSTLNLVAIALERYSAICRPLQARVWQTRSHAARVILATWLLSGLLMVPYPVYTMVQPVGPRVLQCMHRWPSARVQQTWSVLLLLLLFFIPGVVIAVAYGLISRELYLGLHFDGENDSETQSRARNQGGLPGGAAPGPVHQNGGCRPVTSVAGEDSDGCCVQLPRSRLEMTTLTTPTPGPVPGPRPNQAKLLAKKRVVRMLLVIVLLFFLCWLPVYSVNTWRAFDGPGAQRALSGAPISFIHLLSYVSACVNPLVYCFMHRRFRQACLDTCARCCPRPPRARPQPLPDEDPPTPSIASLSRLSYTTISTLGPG
Method: As PG is a gastrin hormone homologue, its local effect is thought to be mediated via gastrin pathway, i.e. an activation of gastrin receptor (CCKB). To test this hypothesis the effect of the specific CCKB antagonist (Itriglumide) on PG-mediated acid secretion in rats was examined.
In this study, rats were anesthetized with Ketamine and Domitor mixture and provided with 20 mg/kg of Itriglumide that was administered intraduodenally (i.d.). Following 15 min, gastric pylorus was ligated and 300 μg/kg PG was administered into the stomach (i.g.). After 30 min, gastric juice was obtained, centrifuged and the volume and pH of the supernatants were measured. The acid concentration (titratable acidity) was analyzed by titration the gastric juice samples with NaOH and total acid output expressed in […] HCl was calculated by multiplying the sample volume by the acid concentration.

[1] = for radioactivity in systemic circulation: oral dose 50×10^6 CPM; for Radioactivity in systemic circulation % of Total Radioactivity/Dose: 50 μg/kg
Method: The bioavailability of PG in rats following oral administration of ^3H-labeled PG was studied. Male Wister Hanover rats were anaesthetized and catheters were positioned in the jugular vein for blood sampling. Rats were treated orally with ^3H-PG at a dose of 50 μg/kg (50×10^6 CPM per dose) and blood samples were drawn at 5, 15 and 30 minutes. The radioactivity in blood samples at each time point was determined by a β-counter.

gastric acid secretion = test: Gastric pH and acid output after tetragastrin s.c. or per os in pylorus-ligated rats; assay type: in vivo, Wister rats; settings: for acid secretion: 30 min, titration with NaOH to pH 7; for gastric pH: gastric juice collected 30 min after treatment
Method: The effect of tetragastrin (Trp-Met-Asp-PheNH2) administered orally in stimulating gastric acid secretion was examined. […] Tetragastrin was administered either s.c. (25 μg/kg) or per os (206 μg/kg) and gastric juice was collected 30 min following treatment. Acid concentration was measured by titration the samples with NaOH to pH=7. Results are expressed as means±SEM of 3-4 animals.

Cc1cc(C)c(NC(=O)C[C@H](CC(=O)O)c2cccc3ccccc23)c(C(=O)N2CCC3(CCCC3)CC2)c1 [CCKB ant., Itriglumide]
Acid Output MEAN (gastrin receptor (CCKB); CCKB ant. i.d. 20 mg/kg alone, pylorus-ligated rats): 15.24 pEq HCl
effect of antagonist on PG-mediated gastric acid secretion (gastrin receptor (CCKB); intraduodenal 20 mg/kg, PG 300 μg/kg i.g., rats): inhibits the local effect of PG on gastric acid secretion

CSCC[C@H](NC(=O)[C@H](Cc1c[nH]c2ccccc12)NC(=O)CCNC(=O)OC(C)(C)C)C(=O)N[C@@H](CC(=O)O)C(=O)N[C@@H](Cc1ccccc1)C(N)=O [^3H-PG]
radioactivity in systemic circulation ([1]; 5 min): 748×10^3 CPM
Radioactivity in systemic circulation % of Total Radioactivity/Dose ([1]; 5 min following oral administration): 1.43%
radioactivity in systemic circulation ([1]; 15 min): 982×10^3 CPM
Radioactivity in systemic circulation % of Total Radioactivity/Dose ([1]; 15 min following oral administration): 1.67%
radioactivity in systemic circulation ([1]; 30 min): 832×10^3 CPM
Radioactivity in systemic circulation % of Total Radioactivity/Dose ([1]; 30 min following oral administration): 1.42%
share of total orally administered radioactivity that entered the systemic circulation ([1]; oral 50 μg/kg (50×10^6 CPM), over 5-30 min): approximately 1.5%

CSCC[C@H](NC(=O)[C@@H](N)Cc1c[nH]c2ccccc12)C(=O)N[C@@H](CC(=O)O)C(=O)N[C@@H](Cc1ccccc1)C(N)=O [tetragastrin, Trp-Met-Asp-PheNH2]
local stimulation of gastric acid secretion compared to PG (gastric acid secretion; equimolar dose, oral): less prominent as compared to PG
acid secretion (gastric acid secretion; per os 206 μg/kg): elevated acid secretion
gastric pH (gastric acid secretion; per os 206 μg/kg): reduced gastric pH
acid secretion (gastric acid secretion; s.c. 25 μg/kg): elevated acid secretion
gastric pH (gastric acid secretion; s.c. 25 μg/kg): reduced gastric pH
